Measurements published in US9242970B2 (ACTELION PHARMACEUTICALS LTD., priority 2010, dated 2016).

Columns and labels:
human orexin-2 receptor = human orexin-2 receptor (Homo sapiens (Human), UniProt O43614); test: In vitro assay: intracellular calcium measurements (FLIPR), antagonistic activity; type: cell-based; conditions: CHO cells, 3 nM orexin-A, compound incubation 120 min; marked values are geometric means of n = 2-6; read-out: IC50 OX2
human orexin-1 receptor = human orexin-1 receptor (Homo sapiens (Human), UniProt O43613); test: as above; type: cell-based; conditions: CHO cells, 3 nM orexin-A, compound incubation 120 min; marked values are geometric means of n = 2-6; read-out: IC50 OX1
Chain of human orexin-1 receptor (O43613 whole entry): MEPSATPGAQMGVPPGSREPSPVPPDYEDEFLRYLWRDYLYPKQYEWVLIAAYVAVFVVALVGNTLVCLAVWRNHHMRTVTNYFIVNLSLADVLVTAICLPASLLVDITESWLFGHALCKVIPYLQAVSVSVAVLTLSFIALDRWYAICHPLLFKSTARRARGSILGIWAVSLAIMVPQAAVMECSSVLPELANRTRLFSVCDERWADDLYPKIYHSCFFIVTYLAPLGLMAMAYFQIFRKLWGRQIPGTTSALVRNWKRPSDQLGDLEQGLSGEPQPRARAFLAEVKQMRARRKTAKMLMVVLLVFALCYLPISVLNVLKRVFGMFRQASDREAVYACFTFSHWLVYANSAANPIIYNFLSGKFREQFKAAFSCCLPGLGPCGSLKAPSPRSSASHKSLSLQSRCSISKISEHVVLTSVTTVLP

Chain of human orexin-2 receptor (O43614 whole entry): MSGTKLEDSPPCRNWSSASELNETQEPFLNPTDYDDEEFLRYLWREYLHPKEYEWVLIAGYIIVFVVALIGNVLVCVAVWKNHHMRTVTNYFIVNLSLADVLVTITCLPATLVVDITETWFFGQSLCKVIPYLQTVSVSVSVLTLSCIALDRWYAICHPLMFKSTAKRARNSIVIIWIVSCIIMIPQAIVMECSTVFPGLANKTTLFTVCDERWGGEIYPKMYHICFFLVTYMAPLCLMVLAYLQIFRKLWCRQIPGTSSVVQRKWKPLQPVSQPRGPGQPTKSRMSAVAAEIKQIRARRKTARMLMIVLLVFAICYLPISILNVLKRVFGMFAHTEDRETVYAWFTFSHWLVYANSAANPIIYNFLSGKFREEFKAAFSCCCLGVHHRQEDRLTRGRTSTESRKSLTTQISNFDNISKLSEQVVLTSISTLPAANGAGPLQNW

SMILES | IC50 (human orexin-2 receptor) [nM] | IC50 (human orexin-1 receptor) [nM]
COc1cccc(OC)c1C1CCCCC(=O)N1Cc1ccc2ccccc2n1 (stereo not shown) [Example 79, 7-(2,6-dimethoxyphenyl)-1-(quinolin-2-ylmethyl)azepan-2-one] | 82 | 21
COc1cccc(OC)c1C1CCCCC(=O)N1Cc1cnc2ccccc2c1 (stereo not shown) [Example 80, 7-(2,6-dimethoxyphenyl)-1-(quinolin-3-ylmethyl)azepan-2-one] | 1040 | 715
COc1cccc(OC)c1C1CCCCC(=O)N1Cc1ccnc(-c2ccccc2)c1 (stereo not shown) [Example 81, 7-(2,6-dimethoxyphenyl)-1-((2-phenylpyridin-4-yl)methyl)azepan-2-one] | 58 | 7
COc1cccc(OC)c1C1CCCCC(=O)N1Cc1cccc(-c2ccccc2)n1 (stereo not shown) [Example 82, 7-(2,6-dimethoxyphenyl)-1-((6-phenylpyridin-2-yl)methyl)azepan-2-one] | 26 | 7
COc1cccc(OC)c1C1CCCCC(=O)N1Cc1cccc(-c2ncccn2)c1 (stereo not shown) [Example 83, 7-(2,6-dimethoxyphenyl)-1-(3-(pyrimidin-2-yl)benzyl)azepan-2-one] | 19 | 3
COc1cccc(OC)c1C1CCCCC(=O)N1Cc1cccc(-c2ccccn2)c1 (stereo not shown) [Example 84, 7-(2,6-dimethoxyphenyl)-1-(3-(pyridin-2-yl)benzyl)azepan-2-one] | 7 | 3
COc1cccc(OC)c1C1CCCCC(=O)N1Cc1cccc(-c2nccs2)c1 (stereo not shown) [Example 85, 7-(2,6-dimethoxyphenyl)-1-(3-(thiazol-2-yl)benzyl)azepan-2-one] | 3 | 2
COc1cccc(OC)c1C1CCCCC(=O)N1Cc1ccc2c(c1)c1ccccc1n2C (stereo not shown) [Example 86, 7-(2,6-dimethoxyphenyl)-1-((9-methyl-9H-carbazol-3-yl)methyl)azepan-2-one] | 71 | 45
COc1cccc(OC)c1C1CCCCC(=O)N1Cc1cccc(-c2cccnc2)c1 (stereo not shown) [Example 87, 7-(2,6-dimethoxyphenyl)-1-(3-(pyridin-3-yl)benzyl)azepan-2-one] | 46 | 21
COc1cccc(OC)c1C1CCCCC(=O)N1Cc1cccc(N2CCCCC2)c1 (stereo not shown) [Example 88, 7-(2,6-dimethoxyphenyl)-1-(3-(piperidin-1-yl)benzyl)azepan-2-one] | 58 | 12
COc1cccc(OC)c1C1CCCCC(=O)N1Cc1cnc(OC(F)F)c(Cl)c1 (stereo not shown) [Example 89, 1-((5-chloro-6-(difluoromethoxy)pyridin-3-yl)methyl)-7-(2,6-dimethoxyphenyl)azepan-2-one] | 85 | 385
COc1cccc(OC)c1C1CCCCC(=O)N1Cc1ccc2oc3ccccc3c2c1 (stereo not shown) [Example 90, 1-(dibenzo[b,d]furan-2-ylmethyl)-7-(2,6-dimethoxyphenyl)azepan-2-one] | 3 | 1
COc1cccc(OC)c1C1CCCCC(=O)N1Cc1cccc(-c2csc(C)n2)c1 (stereo not shown) [Example 91, 7-(2,6-dimethoxyphenyl)-1-(3-(2-methylthiazol-4-yl)benzyl)azepan-2-one] | 3 | 1
COc1cccc(OC)c1C1CCCCC(=O)N1Cc1cncc(-c2ccccc2)c1 (stereo not shown) [Example 92, 7-(2,6-dimethoxyphenyl)-1-((5-phenylpyridin-3-yl)methyl)azepan-2-one] | 455 | 1060
COc1cccc(OC)c1C1CCCCC(=O)N1Cc1cccc(N2CCCC2)c1 (stereo not shown) [Example 93, 7-(2,6-dimethoxyphenyl)-1-(3-(pyrrolidin-1-yl)benzyl)azepan-2-one] | 16 | 3
COc1cccc(OC)c1C1CCCCC(=O)N1Cc1cnn(-c2ccccc2)c1 (stereo not shown) [Example 94, 7-(2,6-dimethoxyphenyl)-1-((1-phenyl-1H-pyrazol-4-yl)methyl)azepan-2-one] | 378 | 121
COc1cccc(OC)c1C1CCCCC(=O)N1Cc1ccc2sc(C)nc2c1 (stereo not shown) [Example 95, 7-(2,6-dimethoxyphenyl)-1-((2-methylbenzo[d]thiazol-5-yl)methyl)azepan-2-one] | 29 | 8
COc1cccc(OC)c1C1CCCCC(=O)N1Cc1cccc(-c2ccncc2)c1 (stereo not shown) [Example 96, 7-(2,6-dimethoxyphenyl)-1-(3-(pyridin-4-yl)benzyl)azepan-2-one] | 85 | 16
COc1cccc(OC)c1C1CCCCC(=O)N1Cc1cccc(-n2cccn2)c1 (stereo not shown) [Example 97, 1-(3-(1H-pyrazol-1-yl)benzyl)-7-(2,6-dimethoxyphenyl)azepan-2-one] | 20 | 5
COc1cccc(OC)c1C1CCCCC(=O)N1Cc1csc(-c2ccccc2)n1 (stereo not shown) [Example 98, 7-(2,6-dimethoxyphenyl)-1-((2-phenylthiazol-4-yl)methyl)azepan-2-one] | 6 | 6
COc1cccc(OC)c1C1CCCCC(=O)N1Cc1cccc(-c2cncs2)c1 (stereo not shown) [Example 99, 7-(2,6-dimethoxyphenyl)-1-(3-(thiazol-5-yl)benzyl)azepan-2-one] | 34 | 7
COc1cccc(OC)c1C1CCCCC(=O)N1Cc1cccc(-c2ncc(C)s2)c1 (stereo not shown) [Example 100, 7-(2,6-dimethoxyphenyl)-1-(3-(5-methylthiazol-2-yl)benzyl)azepan-2-one] | 3 | 1
COc1cccc(OC)c1C1CCCCC(=O)N1Cc1cccc(-n2nccn2)c1 (stereo not shown) [Example 101, 1-(3-(2H-1,2,3-triazol-2-yl)benzyl)-7-(2,6-dimethoxyphenyl)azepan-2-one] | 33 | 3
COc1cccc(OC)c1C1CCCCC(=O)N1Cc1cccc(-c2cscn2)c1 (stereo not shown) [Example 102, 7-(2,6-dimethoxyphenyl)-1-(3-(thiazol-4-yl)benzyl)azepan-2-one] | 19 | 6
COc1cccc(OC)c1C1CCCCC(=O)N1Cc1ccnc(-n2cccn2)c1 (stereo not shown) [Example 103, 1-((2-(1H-pyrazol-1-yl)pyridin-4-yl)methyl)-7-(2,6-dimethoxyphenyl)azepan-2-one] | 86 | 8
COc1cccc(OC)c1C1CCCCC(=O)N1Cc1cccc(-n2cccn2)n1 (stereo not shown) [Example 104, 1-((6-(1H-pyrazol-1-yl)pyridin-2-yl)methyl)-7-(2,6-dimethoxyphenyl)azepan-2-one] | 429 | 38
COc1cccc(OC)c1C1CCCCC(=O)N1Cc1ccc2nc(C)sc2c1 (stereo not shown) [Example 105, 7-(2,6-dimethoxyphenyl)-1-((2-methylbenzo[d]thiazol-6-yl)methyl)azepan-2-one] | 258 | 155
COc1cccc(OC)c1C1CCCCC(=O)N1Cc1cccc(-c2ccccn2)c1F (stereo not shown) [Example 106, 7-(2,6-dimethoxyphenyl)-1-(2-fluoro-3-(pyridin-2-yl)benzyl)azepan-2-one] | 60 | 14
COc1cccc(OC)c1C1CCCCC(=O)N1Cc1ccc(F)c(-c2ccccn2)c1 (stereo not shown) [Example 107, 7-(2,6-dimethoxyphenyl)-1-(4-fluoro-3-(pyridin-2-yl)benzyl)azepan-2-one] | 22 | 4
